Assay results reported in PubChem BioAssay (NCI).
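Test compounds were applied to cells in 96-well plates for 48 hours at 5 doses. Abbreviation: GI50, concentration required for 50% inhibition of growth. TGI is the concentration that stops growth completely.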

What was measured:
Assay in all cases: DTP human tumour cell line panel, 48 h
A549 NSCLC = tested on: A549 NSCLC
CAKI-1 renal = tested on: CAKI-1 renal
HCC-2998 colon = tested on: HCC-2998 colon
SF-268 CNS = tested on: SF-268 CNS
SW-620 colon = tested on: SW-620 colon
T-47D breast = tested on: T-47D breast
UACC-257 melanoma = tested on: UACC-257 melanoma
NCI/ADR-RES ovarian = tested on: NCI/ADR-RES ovarian

Row | SMILES | GI50 (A549 NSCLC) [µM] | TGI (A549 NSCLC) [µM] | GI50 (CAKI-1 renal) [µM] | TGI (CAKI-1 renal) [µM] | GI50 (HCC-2998 colon) [µM] | TGI (HCC-2998 colon) [µM] | GI50 (SF-268 CNS) [µM] | TGI (SF-268 CNS) [µM] | GI50 (SW-620 colon) [µM] | TGI (SW-620 colon) [µM] | GI50 (T-47D breast) [µM] | TGI (T-47D breast) [µM] | GI50 (UACC-257 melanoma) [µM] | TGI (UACC-257 melanoma) [µM] | GI50 (NCI/ADR-RES ovarian) [µM] | TGI (NCI/ADR-RES ovarian) [µM]
1 | Cc1nn2c(/C=C3/C(=O)Nc4ccc(Cl)cc43)c(-c3ccccc3)nc2s1 | 2.25 | 5.51 | 1.92 | 6.3 | 9.59 | 37 | 2.06 | 5.19 | 4.51 | 19.7 | 1.71 | 11.5 | 3.11 | 11.1 | – | –
2 | COc1ccc(/C=C(\C#N)c2cc(OC)c3c(c2)OCO3)cc1 | < 0.0148 | 44.1 | 0.465 | 90.8 | 0.0264 | 1.41 | < 0.01 | 52.6 | < 0.01 | > 100 | – | – | 17 | 57 | < 0.01 | 0.58
3 | O=C(CNC(=O)c1cccc2ccccc12)Nc1ccccc1Oc1ccccc1 | 0.459 | > 10 | 0.353 | > 10 | 0.712 | > 10 | 0.435 | > 10 | 0.283 | > 10 | 0.542 | > 10 | – | – | 0.239 | > 10
4 | NC(=NC1CCCCCC1)c1ccc(N2CCN(c3ccc(C(N)=NC4CCCCCC4)cc3)CC2)cc1 | 9.29 | > 50 | > 50 | > 50 | 8.9 | > 50 | 6.92 | 15 | 10.8 | > 50 | 15.2 | > 50 | 9.75 | > 50 | > 50 | > 50
5 | CCS(=O)(=O)c1ccc(OC)c(Nc2nccc(N(C)c3ccc4c(C)[nH]nc4c3)n2)c1 | 9.83 | > 25 | 3.75 | 12.3 | 8.18 | > 25 | 4.74 | > 17.6 | 7.85 | > 25 | 4.77 | 21.9 | 7.57 | > 24 | 6.32 | > 19.4
6 | COc1cc(-c2cn(-c3ccc(Cl)cc3)c(=O)[nH]2)cc(OC)c1OC | > 100 | > 100 | > 100 | > 100 | > 100 | > 100 | > 100 | > 100 | > 100 | > 100 | > 100 | > 100 | > 100 | > 100 | > 100 | > 100
7 | CCC(C)/C=C(C)/C=C/C(=O)c1c(O)c(-c2ccc(O)cc2)c[nH]c1=O (stereo not drawn) | 4.3 | 20.1 | 2.74 | 12.6 | 3.75 | 14.8 | 3.19 | 14 | 3.5 | 11.9 | 3.22 | 17 | 4.25 | 16.4 | 3.53 | 27.7
8 | CCc1ccc(CCC(=O)Nc2ncc(Cc3ccccc3)s2)o1 | 4.47 | > 100 | 2.94 | > 100 | 3.24 | > 100 | 8.64 | > 100 | 0.889 | > 100 | 2.6 | > 100 | > 100 | > 100 | 2.39 | > 100
9 | Cc1ccc(NS(=O)(=O)c2cc(C)ccc2C)cc1 | 4.78 | 38 | 3.25 | 29.2 | 7 | 28 | 7 | 35.2 | 2.58 | > 100 | 6.09 | > 100 | 10.2 | 47.4 | 1.38 | 8.95
10 | Cc1cc(-c2nc3ccc(O)cc3s2)ccc1N | 34.5 | > 100 | – | > 100 | > 100 | > 100 | 35.6 | > 100 | 66.8 | > 100 | 22.6 | > 100 | > 100 | > 100 | 91.1 | > 100
11 | Fc1ccc(-c2nnc3sc(-c4cccc(Cl)c4)nn23)cc1Cl | > 100 | > 100 | > 100 | > 100 | > 100 | > 100 | > 100 | > 100 | > 100 | > 100 | > 100 | > 100 | > 100 | > 100 | > 100 | > 100
12 | Cc1cc(N/N=C/c2nc(-c3ccccc3)oc2C)c2cc(Cl)ccc2n1 | 1.85 | 3.58 | 1.69 | 3.1 | 1.73 | 3.23 | – | – | 1.81 | 3.7 | 2.02 | 4.22 | 2.01 | 4.9 | 1.84 | 3.95
13 | Cc1nn2c(/C=C3/C(=O)Nc4ccccc43)c(-c3ccc(Cl)cc3)nc2s1 | 16.2 | > 50 | 13.3 | > 50 | – | – | 19.9 | > 50 | > 50 | > 50 | – | – | 37.3 | > 50 | – | –
14 | Cc1cc(S(=O)(=O)NC#N)c(S/C(=N\Nc2ccc([N+](=O)[O-])cc2)c2ccccc2)cc1Cl | 18.7 | 40.8 | 21.1 | 45.8 | 17.2 | 30.9 | 19.2 | 43.7 | 17.1 | 30.8 | > 100 | > 100 | 35.9 | > 100 | – | –
15 | COc1cc(-c2cc(-c3nc4ccccc4[nH]3)[nH]n2)cc(OC)c1OC | 2.43 | 15.1 | 2.24 | 14.4 | 7.1 | 21.5 | 6.43 | 21.9 | 7.73 | 30.3 | 1.11 | 7.61 | 2.1 | 6.12 | 2.88 | 8.49
